Data on 22 molecules can be found in ChEMBL document CHEMBL4665703, “Structurally Diverse Indole Alkaloids with Vasorelaxant Activity from Melodinus hemsleyanus” (J Nat Prod, 2020).

In the assay the test system is Aorta. Description: Vasorelaxant activity in Sprague-Dawley rat aortic artery assessed as reduction in phenylephrine-induced contractions. The format is functional, tissue-based.

Where a name gives a salt, the structure may show the parent alone. A value given as a limit tells only on which side of the number the result lay.

Take `CC[C@]12CCC[N+]3([O-])CC[C@]4(C(=C(C(=O)OC)C1)Nc1cc(O)ccc14)[C@H]23` (some centres not stated): the EC50 is greater than 10 µM.
For `CC[C@]12C=CCN3CCc4c(n(c5cc(O)ccc45)[C@@](O)(C(=O)OC)C1)[C@@H]32` the value was 2.8 µM; for `CC[C@]12C=CCN3CCc4c(n(c5cc(OC)ccc45)[C@](O)(C(=O)OC)C1)[C@@H]32`, 1.9 µM.
Next, `COC(=O)[C@@H]1C[C@@]23CCC[N+]4([O-])CC[C@@]5(c6ccccc6N[C@]15CC2)[C@H]34` (some centres not stated): greater than 10 µM; `CC[C@]12C=CCN3CCc4c(n(c5cc(OC)ccc45)[C@@](O)(C(=O)OC)C1)[C@@H]32`: 2.2 µM.
Next, `CC[C@@]12CC(C(=O)OC)=C3Nc4cc(O)ccc4[C@@]34CCN(C(=O)[C@H]3O[C@H]31)[C@@H]24`: greater than 10 µM; `C[C@@H]1C(=O)[C@@]23C[C@@]14C=CCN1CC[C@@]2(c2ccccc2NC3=O)[C@@H]14`: greater than 10 µM; `COC(=O)[C@@H](C)[C@]12C=CCN3CC[C@@]4(c5ccccc5NC(=O)[C@H]4C1)[C@@H]32`: greater than 10 µM.
For `CC[C@]12CCCN3CCc4c(n(c5ccccc45)[C@@H](OC)C1)[C@@H]32`, the EC50 is greater than 10 µM.
As to `CC[C@]12C=CCN3CCc4c(n(c5cc(O)ccc45)[C@](O)(C(=O)OC)C1)[C@@H]32`, the EC50 was found to be 2.4 µM.
For `CC[C@]12CCCN3CC[C@]4(C(=C(C(=O)OC)C1)Nc1cc(O)ccc14)[C@@H]32` the value was greater than 10 µM.
With `CC[C@]12C=CCN3CC[C@]4(C(=C(C(=O)OC)C1)Nc1ccccc14)[C@@H]32` [TABERSONINE], the EC50 was greater than 10 µM.
As to `CC[C@]12C=CC(=O)N3CC[C@]4(C(=C(C(=O)OC)C1)Nc1ccccc14)[C@@H]32`, the EC50 came out at 0.8 µM.
Next, `Cc1ccc(N(CC2=NCCN2)c2cccc(O)c2)cc1` [PHENTOLAMINE MESYLATE]: 0.1 µM; `CC[C@]12CC(=O)N3CC[C@]4(C(=C(C(=O)OC)C1)Nc1cc(O)ccc14)[C@@H]32`: greater than 10 µM; `COC(=O)[C@@H]1C[C@@]23CCCN4CC[C@@]5(c6ccccc6N[C@]15CC2)[C@@H]43`: greater than 10 µM.
For `C[C@H](O)[C@@]12C[C@@H](C(N)=O)c3[nH]c4ccccc4c3CCN(C[C@H](O)[C@H]1O)C2=O` the value was greater than 10 µM; for `C[C@H]1C(=O)[C@@]23C[C@@]14C=CCN1CC[C@@]2(c2ccccc2NC3=O)[C@@H]14`, greater than 10 µM.
Next, `CC[C@]12CCCN3CCc4c(n(c5ccccc45)[C@@H](O)C1)[C@@H]32` [VINCANOL]: greater than 10 µM; `C[C@@H]1C(=O)O[C@]23N4CC=C[C@]12C[C@@H]1C(=O)Nc2ccccc2[C@@]13CC4`: greater than 10 µM; `CC[C@]12C=CCN3CCc4c(n(c5ccccc45)[C@@](O)(C(=O)OC)C1)[C@@H]32`: 1.9 µM.
For `CC[C@]12C=CCN3CCc4c(n(c5ccccc45)[C@](O)(C(=O)OC)C1)[C@@H]32`, the concentration giving a half-maximal response (EC50) was determined as 3.8 µM.
